Assay results reported in patent US20210395327A1, “Growth Hormone-Releasing Hormone Antagonists and Uses Thereof” (United States Government As Represented By The Department …, priority 2019, published 2021).
Non-standard residues stand in square brackets, D forms with d. Residues, ends and D or L forms follow the SMILES beside them. *: point of attachment. Phenylacetyl(2,3,4,5,6-F5) = O=C(Cc1c(F)c(F)c(F)c(F)c1F)*; Phe(F5) = N[C@@H](Cc1c(F)c(F)c(F)c(F)c1F)C(=O)O; Phe(4-Cl) = N[C@@H](Cc1ccc(Cl)cc1)C(=O)O; hArg = N=C(N)NCCCC[C@H](N)C(=O)O; 12Ado = NCCCCCCCCCCCC(=O)O; Nle = CCCC[C@H](N)C(=O)O; Orn = NCCC[C@H](N)C(=O)O; Abu = CC[C@H](N)C(=O)O; PhAc = O=C(Cc1ccccc1)*

Legend:
HT-29 colon cancer cells = test: In vitro cell viability, HT-29; type: cell-based, human; conditions: Table 3B; 5 μM for 72 H; MIA-602 = 1
Method: The inhibitory effects of the various synthesized GHRH antagonists were tested in cell proliferation assays in various human cancer cell lines including stomach cancer (KATOIII, N87), colon cancer (HT-29), urothelial cancer (J82, RT4), pancreatic cancer (PANC-1, CFPAC-1), prostatic cancer (PC3), breast cancer (MX-1, HCC1806), ovarian cancer (SK-OV-3, OVCAR-3) and lung cancer (HCC827, H460).
(§1) Cell culture. Human cancer cell lines including pancreatic (PANC-1 and CFPAC-1), lung (HCC827 and H460), stomach (NCI-N87 and KATOIII), urothelial (J82, RT4), prostatic (PC3), breast (MX-1 and HCC 1806), colorectal (HT-29), and ovarian (SK-OV-3 and OVCAR-3) were obtained from the American Type Culture Collection (ATCC) and cultured at 37° C. in a humidified 95% air/5% CO2 atmosphere in the medium recommended by ATCC.
In vitro cell viability. Cell viability was analyzed as follows: cancer cells including pancreatic (PANC-1 and CFPAC-1), lung (HCC827 and H460), stomach (NCI-N87 and KATOIII), urothelial (J82, RT4), prostatic (PC3) and breast (MX-1 and HCC 1806), colorectal (HT-29) and ovarian (SK-OV-3 and OVCAR-3) were grown on 96 well plates to ˜60% confluence, the cells were starved for 24 h in culture medium containing 0.5% FBS. Cells were then treated with GHRH antagonists MIA602 AVR compounds at concentrations of 1, 2.5 or 5 μM, or vehicle (0.1% DMSO) in quintuplicates for 72 hours. The medium was replaced every 48 hours. Cell viability was measured using CellTiter 96 aqueous one solution kit (Promega). Inhibitory effects of tested AVR compounds in comparison to that of MIA602 are presented as inhibitory potency.
Inhibitory effects of selected AVR compounds in comparison to that of MIA602 are presented as inhibitory potency (e.g., percentage of inhibition). […] The cell lines tested including lung cancer HCC827 (FIG. 2A), pancreatic cancer CFPAC-1 (FIG. 2B), stomach cancer N87 (FIG. 2C), colon cancer HT-29 (FIG. 2D), breast cancers MX-1 and HCC1806 (FIGS. 2 E, F). Based on the results of cell proliferation assay after cancer cells were treated with antagonist at concentration of 5 μM for 72H, the relative inhibitory potency of AVR antagonists in comparison to MIA-602 is summarized in Table 3 A and B. Over 60 AVR compounds were tested in 12 cancer cell lines.
Based on the results of cell proliferation assay after cancer cells were treated with antagonist at concentration of 5 µM for 72H, * at concentration of 2 µM for 72 H.

[1] = test system: GH release from rat pituitary cells; test: Inhibition of GH release from rat pituitary cells in vitro (GH ELISA); type: cell-based; conditions: analogs 20 nM, then with 1 nM GHRH(1-29)NH2 for 30 minutes; Control = 1.00
Method: In vitro assessment of the antagonistic activity of GHRH analogs. Rats were decapitated and pituitaries were collected in pre-warmed HBSS (Hanks' Balanced Salt Solution). Tissue was then cut into small pieces and digested in HBSS medium containing 3% BSA, 50 μg/ml gentamycin and 0.5% collagenase for 50 minutes at 37° C. Cells were further dispersed by pipetting and passed through a 100 μm cell strainer with the addition of DMEM containing 50 μg/ml gentamycin. 10% horse serum and 2.5% FBS (growth medium). Cells were harvested at 475×g for 2 minutes, resuspended in fresh growth medium and seeded onto poly-D-lysine-coated 24-well plates (7 pituitaries/plate). Cells were left to recover for 4 days. Growth medium was then replaced with serum-free DMEM for 4 hours and GHRH analogs (at concentration of 20 nM) were added in DMEM containing 0.1% BSA for 30 minutes. Cells were replenished with medium containing the same concentration of the analogs and 1 nM GHRH(1-29)NH2 for 30 minutes. Medium from this step was collected, centrifuged at 800 g for 3 minutes and GH concentration was determined by ELISA (ALPCO Diagnostics, Mill Valley, Calif.) according to the manufacturer's instruction.

[2] = test system: stomach cancer N87 xenograft; test: Xenograft tumor growth in nude mice, N87; type: in vivo; conditions: for % Inhibition: vs control
Method: The peptides' activity was compared with GHRH antagonist MIA-602. All statistical analyzses were performed from comparing GHRA antagonists to non-treated tumor (control).
Peptides and chemicals. GHRH antagonists MIA-602 and AVR-GHRH antagonists (see Table 2 above) were synthesized by solid phase methods and purified by HPLC. The peptides were dissolved in DMSO and further diluted in 10% 1,2-propanediol. The final concentration of peptides was 50 µg/ml in 10% 1,2-propanediol containing 0.1% of DMSO.
as §1, with “(NCI-N87), prostate” for “(NCI-N87 and KATOIII), urothelial (J82, RT4), prostatic”, “brest” for “breast”, “HCC-1806),” for “HCC 1806),”
Xenograft models of human cancers in nude mice. Female athymic (NCr nu/nu) nude mice, 5- to 6-weeks-old, obtained from the Envigo labs (Tampa, Fla.), were housed in laminar airflow cabinets under pathogen-free conditions with a 12-h light/12-h dark schedule, and were fed autoclaved standard chow and water. To generate mice with xenografted tumors, tumor xenografts were initiated by subcutaneous (s.c.) injection of 107 human cancer cells into female nude mice. After about 4 weeks the resulting tumors were dissected and collected after removing necrosis tissues. The tumors were then cut into particles with size of 3 mm3 and transplanted s.c. by trocar needle into experimental animals. When tumors grew to the size of 50-60 mm3 (by volume), […] of 5 μg of GHRH antagonists MIA-602 or AVR-compounds (2-10 μg as indicated), or vehicle solutions (0.1% DMSO in 10% 1,2-propanediol) respectively. Tumor sizes were measured weekly.
Statistical analysis. One-way ANOVA followed by Bonferroni comparison were performed. Data are expressed as Mean±SEM. To determine statistical significance between animal groups, two-tailed Student's t-test was conducted. Differences were considered significant when p<0.05.
Results. […] FIG. 1A-N represents in vivo inhibition of tumor growth during the treatment with GHRH antagonist MIA-602 and selected AVR antagonists in nude mice xenografted with various human tumors including pancreatic cancer PANC-1 (FIG. 1A) and CFPAC-1 (FIG. 1I); lung cancer HCC827 (FIGS. 1B, C) and H460 (FIG. 1H); stomach cancer N87 (FIGS. 1D-F); colon cancer HT-29 (FIG. 1G); breast cancer MX-1 and HCC-1806 (FIGS. 1J, K); ovarian cancer SK-OV-3 and OVACAR-3 (FIGS. 1 L, M) and prostate cancer PC3 (FIG. 1N). See also Table 5.

[3] = Table 4E, Stomach Ca N87, 4 weeks, 2 μg/day s.c.
[4] = Table 4E, Stomach Ca N87, 4 weeks, 5 μg/day s.c.
[5] = Table 4D, Stomach Ca N87, 10 weeks, 2 μg/day s.c.
[6] = Table 4D, Stomach Ca N87, 10 weeks, 5 μg/day s.c.
[7] = Table 4F, Stomach Ca N87, 4 weeks, 5 μg/day s.c.

| SMILES | In vitro relative inhibitory potency in comparison to MIA-602, HT-29 (HT-29 colon cancer cells) | Relative GH release [1] | Tumor Growth % [2, 3] [%] | % Inhibition [2, 3] [%] | Tumor Growth % [2, 4] [%] | % Inhibition [2, 4] [%] | Tumor Size (mm^3) [2, 5] [mm^3] | % Inhibition [2, 5] [%] | Tumor Size (mm^3) [2, 6] [mm^3] | % Inhibition [2, 6] [%] | Tumor Growth % [2, 7] [%] | % Inhibition [2, 7] [%] |
| --- | --- | --- | --- | --- | --- | --- | --- | --- | --- | --- | --- | --- |
| CCCC[C@H](NC(=O)[C@@H](NC(=O)[C@H](CC(=O)O)NC(=O)[C@H](CCC(N)=O)NC(=O)[C@H](CC(C)C)NC(=O)[C@H](CC(C)C)NC(=O)[C@H](CCCN)NC(=O)[C@H](Cc1c[nH]cn1)NC(=O)[C@H](C)NC(=O)[C@H](CO)NC(=O)[C@H](CC(C)C)NC(=O)[C@H](CCC(N)=O)NC(=O)[C@H](CC)NC(=O)[C@H](CC(C)C)NC(=O)[C@@H](NC(=O)[C@H](CCCN)NC(=O)[C@H](Cc1c[nH]cn1)NC(=O)[C@H](Cc1c(F)c(F)c(F)c(F)c1F)NC(=O)[C@H](CCCCNC(=N)N)NC(=O)[C@H](C)NC(=O)[C@@H](NC(=O)[C@H](Cc1ccc(Cl)cc1)NC(=O)[C@@H](NC(=O)[C@H](C)NC(=O)[C@H](CC(=O)O)NC(=O)[C@@H](CCCNC(=N)N)NC(=O)[C@H](Cc1ccc(O)cc1)NC(=O)CCCCCCCCCCCNC(=O)Cc1c(F)c(F)c(F)c(F)c1F)[C@@H](C)CC)[C@@H](C)O)C(C)C)[C@@H](C)CC)C(=O)N[C@H](CCCNC(=N)N)C(=O)N[C@@H](CCCCNC(=N)N)C(=O)NCCCCCCCCCCCC(=O)NC [AVR-543, 5FPhAC-Ada-Tyr-DArg-Asp-Ala-Ile-Cpa-Thr-Ala-Har-5FPhe-His-Orn-Val-Leu-Abu-Gln-Leu-Ser-Ala-His-Orn-Leu-Leu-Gln-Asp-Ile-Nle-DArg-Har-Ada-NHCH3] ({Phenylacetyl(2,3,4,5,6-F5)-12Ado}-Y[dR]DAI[Phe(4-Cl)]TA[hArg][Phe(F5)]H[Orn]VL[Abu]QLSAH[Orn]LLQDI[Nle][dR][hArg][12Ado]-NHMe) | 0.999 | 1.10 ± 0.01 | 406.8 | 48.4 | 313.90 | 64.8 | – | – | – | – | – | – |
| CCCC[C@H](NC(=O)[C@@H](NC(=O)[C@H](CC(=O)O)NC(=O)[C@H](CCC(N)=O)NC(=O)[C@H](CC(C)C)NC(=O)[C@H](CC(C)C)NC(=O)[C@H](CCCN)NC(=O)[C@H](Cc1c[nH]cn1)NC(=O)[C@H](C)NC(=O)[C@H](CO)NC(=O)[C@H](CC(C)C)NC(=O)[C@H](CCC(N)=O)NC(=O)[C@H](CC)NC(=O)[C@H](CC(C)C)NC(=O)[C@@H](NC(=O)[C@H](CCCN)NC(=O)[C@H](Cc1c[nH]cn1)NC(=O)[C@H](Cc1ccc(OC)cc1)NC(=O)[C@H](CCCCNC(=N)N)NC(=O)[C@H](C)NC(=O)[C@@H](NC(=O)[C@H](Cc1c(F)c(F)c(F)c(F)c1F)NC(=O)[C@@H](NC(=O)[C@H](C)NC(=O)[C@H](CC(=O)O)NC(=O)[C@@H](CCCNC(=N)N)NC(=O)[C@H](Cc1ccc(O)cc1)NC(=O)CCCCCCCCCCCNC(=O)Cc1ccccc1)[C@@H](C)CC)[C@@H](C)O)C(C)C)[C@@H](C)CC)C(=O)N[C@H](CCCNC(=N)N)C(=O)N[C@@H](CCCCNC(=N)N)C(N)=O [MIA-602, PhAC-Ada, Tyr D-Arg, Asp, Ala, Ile, 5FPhe, Thr, Ala, Har, Tyr(Me), His, Orn, Val, Leu, Abu, Gin, Leu, Ser, Ala, His, Om, Leu, Leu, Gin, Asp, Ile; Nle, D-Arg, Har NH2, reference compound] ({PhAc-12Ado}-Y[dR]DAI[Phe(F5)]TA[hArg]Y(Me)H[Orn]VL[Abu]QLSAH[Orn]LLQDI[Nle][dR][hArg]-NH2) | 1 | 0.78 ± 0.01 | – | – | 427.20 | 52.1 | 1065.00 | 13.0 | 767.00 | 37.3 | 427.20 | 52.1 |
